# Assay results from ChEMBL document CHEMBL3885881, “DrugMatrix”.
# Organism: Rattus norvegicus
# Assay: DrugMatrix - Regimen: Daily Repeat
# Type: toxicity, organism-based, Sprague-Dawley
# Parameters: regimen Daily Repeat, gender Male, age 6-8 weeks
# Details: in vivo, po, route oral GAVAGE, vehicle .5 % CMC; for ABSOLUTE BASOPHIL / ABSOLUTE EOSINOPHIL / ABSOLUTE LYMPHOCYTE / ABSOLUTE MONOCYTE / ABSOLUTE SEGMENTED NEUTROPHIL / BASOPHIL / EOSINOPHIL / ERYTHROCYTE COUNT / HEMATOCRIT / HEMOGLOBIN / LEUKOCYTE COUNT / LYMPHOCYTE / MEAN CORPUSCULAR HEMOGLOBIN / MEAN CORPUSCULAR HEMOGLOBIN CONCENTRATION / MEAN CORPUSCULAR VOLUME / MONOCYTE / NEUTROPHIL / NUCLEATED RED BLOOD CELLS / PLATELET COUNT: tissue Blood; for ALANINE AMINOTRANSFERASE / ALBUMIN / ALKALINE PHOSPHATASE / ASPARTATE AMINOTRANSFERASE / BLOOD UREA NITROGEN / CARBON DIOXIDE / CHLORIDE / CHOLESTEROL / CREATINE PHOSPHOKINASE / CREATININE / GLUCOSE / LACTATE DEHYDROGENASE / LIPASE / PHOSPHORUS / POTASSIUM / SODIUM / TOTAL BILIRUBIN / TOTAL PROTEIN / URIC ACID: tissue Plasma
# [1] = 0 mg/kg, 72 h, dose level Control, time 3 day
# [2] = 0 mg/kg, 120 h, dose level Control, time 5 day
# [3] = 3 mg/kg, 72 h, dose level Low, time 3 day
compound,measurement,setting,value
CC(=O)Nc1ccc2c(c1)Cc1ccccc1-2 [2-ACETYLAMINOFLUORENE],ABSOLUTE BASOPHIL,[1],0 CELLS/uL
same,ABSOLUTE EOSINOPHIL,[1],171.33 CELLS/uL
same,ABSOLUTE LYMPHOCYTE,[1],13776.5 CELLS/uL
same,ABSOLUTE MONOCYTE,[1],180.83 CELLS/uL
same,ABSOLUTE SEGMENTED NEUTROPHIL,[1],1121.33 CELLS/uL
same,BASOPHIL,[1],0%
same,EOSINOPHIL,[1],1%
same,ERYTHROCYTE COUNT,[1],5.56 x10E6/uL
same,HEMATOCRIT,[1],34.75%
same,HEMOGLOBIN,[1],13.68 G/DL
same,LEUKOCYTE COUNT,[1],15.25 x10E3/uL
same,LYMPHOCYTE,[1],90.17%
same,MEAN CORPUSCULAR HEMOGLOBIN,[1],24.6 pg
same,MEAN CORPUSCULAR HEMOGLOBIN CONCENTRATION,[1],39.4 G/DL
same,MEAN CORPUSCULAR VOLUME,[1],62.48 fL
same,MONOCYTE,[1],1.17%
same,NEUTROPHIL,[1],7.67%
same,NUCLEATED RED BLOOD CELLS,[1],0 /100WBC
same,PLATELET COUNT,[1],1342 x10E3/uL
same,ALANINE AMINOTRANSFERASE,[1],49.67 u/L
same,ALBUMIN,[1],4.15 G/DL
same,ALKALINE PHOSPHATASE,[1],346.83 u/L
same,ASPARTATE AMINOTRANSFERASE,[1],108.17 u/L
same,BLOOD UREA NITROGEN,[1],17.33 mg/dL
same,CARBON DIOXIDE,[1],25 mmol/L
same,CHLORIDE,[1],100.83 MEQ/L
same,CHOLESTEROL,[1],66.83 mg/dL
same,CREATINE PHOSPHOKINASE,[1],788 u/L
same,CREATININE,[1],0.18 mg/dL
same,GLUCOSE,[1],151.67 mg/dL
same,LACTATE DEHYDROGENASE,[1],982.5 u/L
same,LIPASE,[1],10.33 u/L
same,PHOSPHORUS,[1],11.23 mg/dL
same,POTASSIUM,[1],6.37 MEQ/L
same,SODIUM,[1],141.02 MEQ/L
same,TOTAL BILIRUBIN,[1],0.18 mg/dL
same,TOTAL PROTEIN,[1],5.9 G/DL
same,URIC ACID,[1],1.8 mg/dL
same,ABSOLUTE BASOPHIL,[2],0 CELLS/uL
same,ABSOLUTE EOSINOPHIL,[2],69 CELLS/uL
same,ABSOLUTE LYMPHOCYTE,[2],13632.83 CELLS/uL
same,ABSOLUTE MONOCYTE,[2],139.83 CELLS/uL
same,ABSOLUTE SEGMENTED NEUTROPHIL,[2],1225 CELLS/uL
same,BASOPHIL,[2],0%
same,EOSINOPHIL,[2],0.33%
same,ERYTHROCYTE COUNT,[2],5.52 x10E6/uL
same,HEMATOCRIT,[2],33.98%
same,HEMOGLOBIN,[2],13.22 G/DL
same,LEUKOCYTE COUNT,[2],15.07 x10E3/uL
same,LYMPHOCYTE,[2],90.83%
same,MEAN CORPUSCULAR HEMOGLOBIN,[2],23.95 pg
same,MEAN CORPUSCULAR HEMOGLOBIN CONCENTRATION,[2],38.9 G/DL
same,MEAN CORPUSCULAR VOLUME,[2],61.53 fL
same,MONOCYTE,[2],0.83%
same,NEUTROPHIL,[2],8%
same,NUCLEATED RED BLOOD CELLS,[2],0 /100WBC
same,PLATELET COUNT,[2],1196 x10E3/uL
same,ALANINE AMINOTRANSFERASE,[2],49.17 u/L
same,ALBUMIN,[2],4.2 G/DL
same,ALKALINE PHOSPHATASE,[2],352.33 u/L
same,ASPARTATE AMINOTRANSFERASE,[2],89.67 u/L
same,BLOOD UREA NITROGEN,[2],18 mg/dL
same,CARBON DIOXIDE,[2],27.67 mmol/L
same,CHLORIDE,[2],101 MEQ/L
same,CHOLESTEROL,[2],72.83 mg/dL
same,CREATINE PHOSPHOKINASE,[2],417.5 u/L
same,CREATININE,[2],0.18 mg/dL
same,GLUCOSE,[2],150.5 mg/dL
same,LACTATE DEHYDROGENASE,[2],517.33 u/L
same,LIPASE,[2],9 u/L
same,PHOSPHORUS,[2],11.87 mg/dL
same,POTASSIUM,[2],6.57 MEQ/L
same,SODIUM,[2],143.62 MEQ/L
same,TOTAL BILIRUBIN,[2],0.2 mg/dL
same,TOTAL PROTEIN,[2],6.08 G/DL
same,URIC ACID,[2],1.45 mg/dL
same,ABSOLUTE BASOPHIL,[3],0 CELLS/uL
same,ABSOLUTE EOSINOPHIL,[3],75.33 CELLS/uL
same,ABSOLUTE LYMPHOCYTE,[3],11859.67 CELLS/uL
same,ABSOLUTE MONOCYTE,[3],186.67 CELLS/uL
same,ABSOLUTE SEGMENTED NEUTROPHIL,[3],911.67 CELLS/uL
same,BASOPHIL,[3],0%
same,EOSINOPHIL,[3],0.67%
same,ERYTHROCYTE COUNT,[3],5.43 x10E6/uL
same,HEMATOCRIT,[3],34.07%
same,HEMOGLOBIN,[3],13.33 G/DL
same,LEUKOCYTE COUNT,[3],13.03 x10E3/uL
same,LYMPHOCYTE,[3],91%
same,MEAN CORPUSCULAR HEMOGLOBIN,[3],24.57 pg
same,MEAN CORPUSCULAR HEMOGLOBIN CONCENTRATION,[3],39.2 G/DL
same,MEAN CORPUSCULAR VOLUME,[3],62.73 fL
same,MONOCYTE,[3],1.33%
same,NEUTROPHIL,[3],7%
same,NUCLEATED RED BLOOD CELLS,[3],0 /100WBC
same,PLATELET COUNT,[3],1354.67 x10E3/uL
same,ALANINE AMINOTRANSFERASE,[3],43.33 u/L
same,ALBUMIN,[3],4.2 G/DL
same,ALKALINE PHOSPHATASE,[3],360.33 u/L
same,ASPARTATE AMINOTRANSFERASE,[3],88.67 u/L
same,BLOOD UREA NITROGEN,[3],18.33 mg/dL
same,CARBON DIOXIDE,[3],26.33 mmol/L
same,CHLORIDE,[3],100.67 MEQ/L
same,CHOLESTEROL,[3],65 mg/dL
same,CREATINE PHOSPHOKINASE,[3],452 u/L
same,CREATININE,[3],0.23 mg/dL
same,GLUCOSE,[3],148.33 mg/dL
same,LACTATE DEHYDROGENASE,[3],641.33 u/L
same,LIPASE,[3],10.33 u/L
same,PHOSPHORUS,[3],11.33 mg/dL
same,POTASSIUM,[3],6.45 MEQ/L
same,SODIUM,[3],141.2 MEQ/L
same,TOTAL BILIRUBIN,[3],0.23 mg/dL
same,TOTAL PROTEIN,[3],5.9 G/DL
same,URIC ACID,[3],1.6 mg/dL
